Structures are written as SMILES. “Also recorded” adds a separate entry of the source.

In experiment [1] the test system is mitochondrial network in hiPSCs. Description: Network reachability: random walk / material diffusion simulation on tracked temporal mitochondrial networks. In kind it is cell-based, human. As to conditions: drug-treated, control 0.18. The procedure:
To quantify transport across the 4D mitochondrial network, a random walk on the tracked temporal mitochondrial networks was simulated and the process was measured in the form of network reachability (see “Material diffusion simulation on temporal mitochondrial networks”). Reachability for a node indicates how easily can material/information reach this node from various parts of the overall network, via the time respecting paths defined by the network tracking.
Diffusion simulation was used on temporal dynamic mitochondrial network to understand the flow of material in mitochondrial networks. To calculate global reachability, we initiate a virtual token at every node of the mitochondrial network at the first timestep. Each token is labeled by the source node from which it originated. At every timestep, each node duplicates the tokens it currently has, and transfers them to the connected neighbors. At the end of the simulation, the global reachability for each node is quantified by the number of unique tokens at that node, corresponding to the number of source nodes this node can reach.
FIGS. 25A and 25B illustrate schematics for material diffusion simulation on temporal network. FIG. 25A illustrates the global reachability simulation. From each node, material can diffuse into the neighboring nodes or stay in the source node. All possible diffusion pathways over time are marked with an arrow. Time is depicted from left to right. Arrows in different thicknesses 2502, 2504, 2506, 2508, 2510, 2512 indicate representative simulation scenarios. After four timesteps, the target node labeled with X has accumulated three tokens (through the transport arrows). FIG. 25B illustrates the calculation for betweenness centrality used for determining the central nodes.
Drug Treatments: All drugs were dissolved in DMSO to make a stock solution and diluted in PBS to prepare a 100× working stock. Cells were treated with oligomycin (20 μM, 2 hr), nocodazole (5 uM, 30 min), and MDIVI-1 (10 μM, 12 hr) without wash. […]

The test system is the same in experiment [2]. Description: Mitochondrial temporal network remodeling (mean degree difference, temporal intersection) from MitoTNT 4D tracking of LLSM data. As to conditions: drug-treated; for mean degree difference (DD): control DD 0.28, low DD = little remodeling; for temporal intersection (TI): control TI 0.58, low TI = drastic remodeling. In kind it is cell-based, human. The procedure:
To quantify mitochondrial network remodeling, the mean degree difference (DD) and the temporal intersection (TI) were calculated. A low DD indicates a low rate of nodes breaking off from their neighbors and reconnecting with other nodes. Inversely, a low TI implies that the network is very dynamic and does undergo drastic remodeling. […] In contrast, when treated with oligomycin, it was observed a 0.52 DD and 0.44 TI indicating a high level of network remodeling. Cytoskeleton influences drive network remodeling events were hypothesized.
Human induced pluripotent stem cell (hiPSC) culture: All studies involving hiPSCs were performed under approval from the University of California San Diego IRB/ESCRO committee. WTC hiPSCs expressing the CAAX domain of K-ras tagged with m TagRFP-T were created at the Allen Institute for Cell Science and obtained through the UCB Cell Culture Facility. hiPSC colonies were expanded on dishes coated with growth factor reduced Matrigel (Corning, 354230) in mTeSR1 (Stemcell Technologies, 85850) containing 1% penicillin/streptomycin (Gibco, 15140122). Colonies were washed with DPBS (Gibco, 14190144) and detached with accutase (Stemcell Technologies, 07920) before plating onto imaging dishes. Cultures were tested routinely for mycoplasma.
Drug Treatments: All drugs were dissolved in DMSO to make a stock solution and diluted in PBS to prepare a 100× working stock. Cells were treated with oligomycin (20 μM, 2 hr), nocodazole (5 uM, 30 min), and MDIVI-1 (10 μM, 12 hr) without wash.
Live cell imaging: 371 CAAX-RFPhiPSCs were stained with 100 nM Mito Tracker Green FM (Invitrogen, M7514) for 30 min prior to imaging. Cells were plated onto 25 mm MatTek dishes and imaged in phenol-red free mTeSR1 (Stemcell Technologies, 85850). Cells were kept under 5% CO2 and 37 degrees C. For imaging, Zeiss LLSM 7 was used with 10×N.A. 0.4 illumination objective lens and 48×375 N.A. 1.0 detection objective lens. Images were acquired in two channels: green channel with excitation at 488 nm and emission at 512 nm; red channel with excitation at 561 nm and emission at 597 nm. For both channels we used 18% laser power and 8 ms exposure. The illumination light-sheet was the Sinc3 beam with length 15 μm, thickness 650 nm and no side lobes. The volume size was 2048×448×57 pixels or 296.94×64.96×8.12 μm with isotropic pixel size 145 nm after coverglass transformation. Images were saved with bit depth 16 bits. For each region, 93 frames were imaged with frame rate 3.26 s per volume for total 5 min. For LLSM data processing, the Lattice Lightsheet 7 Processing Module on ZEN Blue was used for deconvolution, deskew, and cover glass transformation. Further processing is then done using MitoGraph and MitoTNT.

Experiment [3] has as its system mitochondria networks in cells. Put plainly: Distribution of graph size ratio for fission/fusion events (preliminary 4D network tracking). As to conditions: microtubule-disrupted cells vs DMSO control cells. In kind it is cell-based. The procedure:
Preliminary results. 4D mitochondrial network tracking and fission/fusion statistics analysis indicate a selection bias in fission and fusion reaction in normal cells, which is not present when cells are treated with nocodazole. FIGS. 3A and 3B show data plots depicting a distribution of graph size ratio for fission/fusion events. Depicted is the normalized mitochondria fragment size immediately after or before fission or fusion events, respectively. Graph size ratio for a particular mitochondria undergoing fission/fusion computed as the size of the mitochondria network normalized by the total size of all mitochondria networks involved. Values close to 0 and 1 correspond to small and large mitochondria relative to the total size. The metric is calculated and plotted for every fragment undergoing detected fission/fusion events. FIGS. 3A and 3B illustrate histogram bars and gaussian-smoothed curves for fission and fusion. The gaussian-smoothed curves 310 and 330 are for fission and the gaussian-smoothed curves 320 and 340 are for fusion.

Experiment [4] relates to mitochondrial network in hiPSCs. Description: Fission/fusion preference with respect to fragment size (normalized network fragment size difference). As to conditions: hiPSCs with disrupted microtubules, vs DMSO control. In kind it is cell-based, human. The procedure:
To detect fission and fusion events in the network, a sliding-window approach is applied to identify nodes that undergo persistent structural changes as opposed to transient segmentation variations. First, the fragment indices for each node are recorded for the half win size frames before and after the current frame, to form the fragment list. Second, for each network edge, the fragment lists for the connected nodes are compared. Fission will be declared if the fragment lists before the current frame are strictly identical, as well as the fragment lists after the current frame are strictly non-overlapping. Since fusion events can be considered as fission events reversed in time, the opposite criterion is used for fusion detection. In the case that multiple remodeling nodes are located in proximity (less than 5 edges away), the nodes are grouped into a single fission/fusion site. At last, the center of the sliding window is moved to the next frame and the computation is iterated.
To provide mechanistic insights into network remodeling, the motility between randomly selected nodes and nodes undergoing fission and fusion was compared. […] Based on node tracking, each individual mitochondrial network fragment can be tracked as shown in FIG. 17C and the selectivity of fission and fusion events recorded in terms of fragment size. […]

The test system is the same in experiment [5]. Put plainly: Mitochondrial network motility and motion correlation analysis by node tracking. It counts as cell-based, human. The text has this: To measure the network motility of the mitochondrial network, mean-square-displacements (MSDs) vs. time delay curves are computed following previous works. The node ensemble averaged MSDs are plotted for control and oligomycin (See FIGS. 24A and 24B). The MSDs for single tracks are plotted for control and oligomycin (See FIGS. 24C and 24D). Around 80% of the nodes have a coefficient of determination for linear fit greater than 0.8 (see FIG. 15F). To map diffusivity onto mitochondrial nodes, the network nodes are firstly chosen at a center frame. Next, the node track coordinates 10 frames before and 10 frames after the center frame are collected. In a last step, the MSDs are computed at various time delays in this time window to determine the diffusivity of each node.
To compute vector correlation, the displacement vector is firstly obtained for a selected node at a selected frame. Next, the vector correlation is computed, as well as the vectors for the selected node at timepoints 1 frame before and after the selected frame. The vector correlation is computed between this vector and vectors for the nodes directly connected to it and given by the dot product of two vectors, divided by the square of the norm of the longer vector. The final correlation value for the selected node at the selected time is reported as the average of these two values.
To further investigate network branch motility, tracking vectors correlated between adjacent nodes on the same segment, and between the same node at consecutive frames. […] In contrast, temporal correlation between frames is predominantly zero (random motion) to slightly negative (oscillating motion), while interspersed with short period of positive values (directional motion) as shown in FIG. 16E. […] In FIG. 16F, the correlation along skeleton 1610 and the correlation in time 1620 are shown. The ATP synthase inhibitor oligomycin that induces mitochondrial fragmentation was employed to investigate if motion correlation findings are dependent upon network morphologies as shown in FIGS. 16G and 16H. […]

As for `COc1cc(-n2c(=S)[nH]c3ccccc3c2=O)c(Cl)cc1Cl` [mdivi-1], the “average reachability of network nodes” value in experiment [1] is 0.35.

For `COC(=O)Nc1nc2ccc(C(=O)c3cccs3)cc2[nH]1` [nocodazole], in experiment [2], the “mean degree difference (DD)” value was “did not induce drastic changes” and the “temporal intersection (TI)” value is “did not induce drastic changes”. In addition, in experiment [3], the “distribution of graph size ratio for fission/fusion events (selection bias)” value is recorded as “not present; also recorded: flatter distribution”. Besides, the asymmetric fission/fusion events result in experiment [4] is “less pronounced but preserved; also recorded: a decrease in asymmetric fission/fusion”. Moreover, the “average reachability of network nodes” value in experiment [1] is reported as 0.29.

For the compound `CC[C@H]1/C=C/C=C/C[C@@H](C)[C@H](O)[C@@](C)(O)C(=O)[C@@H](C)[C@H](O)[C@@H](C)C(=O)[C@@H](C)[C@H](O)[C@@H](C)/C=C/C(=O)O[C@@H]2[C@H](C)[C@H](CC1)O[C@]1(CC[C@H](C)[C@H](C[C@@H](C)O)O1)[C@H]2C` [oligomycin], in experiment [2], the “mean degree difference (DD)” value worked out at 0.52 and the “temporal intersection (TI)” value was found to be 0.44. In experiment [5] (vs DMSO control), the “motility of drug induced fragments” value is “move considerably faster compared to control”. In experiment [5] (vs control), the “spatial motion correlation (along skeleton)” value is on record as “dropped” and the “temporal motion correlation (between frames)” value was “remains similar”. Besides, the “average reachability of network nodes” value in experiment [1] is 0.64.

Values taken from patent publication US20250200763A1, “4D FLUORESCENCE MICROSCOPY ORGANELLE NETWORK TRACKING” (THE REGENTS OF THE UNIVERSITY OF CALIFORNIA, priority 2022, published 2025).
